We go through one compound from US10772909B2, “System and method for insulin-mimetic of cartilage, bone, or osteochondral repair and piezoelectric composite scaffold” (New Jersey Institute of Technology, priority 2016, dated 2020).

For series [1], the system named is collagen type II. Briefly: Collagen type II ELISA. The series is classed as cell-based, human. The following applies: day 28. Here is the method: (§1) Chondrogenesis Culture. Cryopreserved MSCs were thawed and expanded in GM until 70-80% confluent. Cells were trypsininzed and then seeded on 6 mm diameter scaffold disks at 1.76×10^5 cells/cm^2 and cultured for 28 days in GM, chondrogenic induction medium (CCM), or CCM without insulin, according to previously published methods. CCM consisted of DMEM high glucose containing 4 mM L-glutamine (Invitrogen, Grand Island, N.Y., USA), 0.1 μM dexamethasone (Sigma-Aldrich), 0.17 mM ascorbic acid-2-phosphate (Wako Chemicals, Richmond, Va., USA), 1% ITS+(6.25 µg/mL insulin, 6.25 µg/mL transferrin, 6.25 ng/mL selenous acid, 5.35 μg/ml linoleic acid and 1.25 mg of bovine serum albumin) Premix Culture Supplement (Corning, Corning, N.Y., USA), 1× antibiotic-antimycotic, 1 mM sodium pyruvate (Sigma-Aldrich), 0.35 mM proline (Sigma-Aldrich), and 10 ng/mL recombinant human transforming growth factor-beta3 (TGF-β3, ProSpec, Israel). CCM without insulin consisted of CCM where the 1% ITS+Premix Culture Supplement was substituted with 1% stock solution (6.25 μg/ml transferrin and 6.25 ng/ml selenous acid, 5.35 μg/ml lionleic acid (Sigma-Aldrich) and 1.25 mg of bovine serum albumin (Fisher Scientific). Na2WO4 was added to all media leading to final Na2WO4 concentrations of 0, 0.01, 0.1 and 1 mM. Samples were harvested and analyzed for sulfated glycosaminoglycans (sGAG), cell number and gene expression at day 14 and 28 and for collagen type II and immunostaining at day 28.
Collagen type II production was quantified by enzyme-linked immunosorbent assay (ELISA) using a collagen type II detection kit (Chondrex Inc. Redmond, Wash., USA). The ELISA was conducted following the manufacturer's instructions. Briefly, samples (n=4 per group) were harvested at day 28 and washed with PBS. Collagen was digested by adding pepsin solution (0.1 mg/ml in 0.05 M acetic acid) at 4 C° for two days with gentle mixing. The digested samples were centrifuged for 3 minutes and supernatants were collected. Pancreatic elastase was added to the samples and incubated overnight at 4° C. Supernatants were then collected. The ELISA plate which was coated with collagen type II was prepared as described by the manufacturer and the absorbance at 490 nm was measured using a microplate spectrophotometer (Emax, Molecular Devices). The collagen type II production was determined relative to the standard curve.

For the next series, the system named is PBMCs. Kind of series: CellTiter-Blue viability assay. The series is classed as cell-based, human. Conditions: 0.01, 0.1 and 1 mM Na2WO4; 4 days exposure. Here is the method: CellTiter-Blue Assay (Promega, Madison, Wis.) was used to assess the viability of PBMCs. Cell Titre Blue was used to measure the metabolic activity of PBMCs as a surrogate for cell number. Each experimental group was performed in triplicate in 96-well tissue culture plates. After 4 days, CellTiter-Blue reagent (20 μL/well) was added to each well. The plates were incubated and after 4 hours, the fluorescence intensity was measured with microplate reader (Synergy, HTX, BioTek, Winooski, Vt., USA) at 560/590 nm emission. Percent viability was calculated as the fluorescence reading of treated (stimulated) cells divided by untreated healthy cells, which were considered 100% viable as described in Greco et al..

Series [2] in a line: Sodium tungstate in the scaffold: cell and tissue growth, cytocompatibility. The following applies: 0.01-5 weight (wt.) % sodium tungstate in the scaffold. It is filed as cell-based.
For series [3], the system named is collagen type II. Kind of series: Chondrogenesis culture: gene expression by RT-PCR, collagen type II. The series is classed as cell-based, human. Conditions: for collagen type II gene expression vs 0 and 1 mM groups: CCM without insulin, days 14 and 28; for collagen type II gene expression vs 0 mM: day 14. Here is the method:
as §1
Gene expression was evaluated using quantitative reverse transcription (RT)-polymerase chain reaction (PCR) analysis. RT-PCR was performed with RNeasy Micro Kit and SYBR Green RT-PCR Kit (Qiagen; Valencia, Calif., USA) using the MX4000 detection system (Stratagene) according to the manufacturer's protocol. Relative gene expression of SOX-9, aggrecan and collagen type II were determined. Samples (n=4 per group) were harvested and digested using Lysis Buffer. RNA was isolated from the samples using RNeasy Micro Kit (Qiagen) including DNA digestion step (RNase Free DNase Set; Qiagen). The RNA quantity and integrity were determined by measuring the absorbance at 260 nm and the absorbance ratio of 260 nm/280 nm, respectively, using Nanodrop™ Spectrophotometer (Thermo Fisher Scientific). Quantitative PCR analysis was performed using QuantiTect SYBR Green supermix including the QuantiTect Primer Assays. The reverse transcription step ran for 30 minutes at 50° C., 15 minutes at 95° C. of PCR activation followed by forty cycle of amplification consisting of 15 s denaturation at 94° C., 30 s of annealing at 55° C., and 30 s of extension at 72° C. A melting curve analysis of the RT-PCR product was included for each reaction. Samples were analyzed in triplicate and the value of each gene was normalized to the reference gene ribosomal protein, large, P0 (RPLP0) for the same sample (ΔCT). Primers were purchased from Qiagen (Hs_ACAN, QT00001365; Hs_SOX9, QT00001498; Hs_COL2A1, QT00049518; and Hs_RPLP0 QT00075012).

As to `[Na+].[Na+].[O]=[W](=[O])([O-])[O-]` [Na2WO4, sodium tungstate], in the series with collagen type II [1] (0.01 mM Na2WO4, CCM, p<0.001), the “collagen type II production vs all other groups” value is on record as “highest collagen type II”. Moreover, the “collagen type II production vs 0 mM group” value in the series on collagen type II [1] (0.01 mM Na2WO4, GM, p<0.05) was “significantly higher collagen type II”. The “collagen type II production vs 0 mM and 1 mM” value with collagen type II [1] (0.1 mM Na2WO4, CCM, p<0.001) is “significantly higher collagen type II production”. The “collagen type II production” value in the series with collagen type II [1] (1 mM Na2WO4, CCM, p<0.001) is on record as “lowest”; in the series with collagen type II [1] (CCM without insulin groups), “not detected”. The “PBMC cell viability vs 0 mM” value in the series on PBMCs is reported as “No significant differences in cell viability”. The “cell and tissue growth and cytocompatibility” value in series [2] was “promoted excellent cell and tissue growth results and cytocompatibility results”. Further, the “collagen type II gene expression, change between days 14 and 28” value in the series on collagen type II [3] (0.01 mM Na2WO4, CCM) is recorded as “significant increase in collagen type II expression”. In addition, the “collagen type II gene expression vs 0 and 1 mM groups” value with collagen type II [3] (0.01 mM Na2WO4) and in the series with collagen type II [3] (0.1 mM Na2WO4) was “significantly higher” in each case. For the same compound, the “collagen type II gene expression vs 0 mM” value in the series on collagen type II [3] (0.01 mM Na2WO4, CCM, p<0.001) was “significantly higher collagen type II”; in the series on collagen type II [3] (0.1 mM Na2WO4, CCM, p<0.001), “significantly higher collagen type II”. Also, the “collagen type II gene expression vs all groups” value in the series with collagen type II [3] (0.01 mM Na2WO4, CCM, day 28, p<0.001) is “significantly higher”. In addition, the “collagen type II gene expression” value in the series with collagen type II [3] (1 mM Na2WO4, CCM) is given as “lowest gene expression”. Besides, the “collagen type II gene expression (chondrogenic genes)” value in the series on collagen type II [3] (GM with Na2WO4) is given as “no significant upregulation of chondrogenic genes”.
